Assay results as given in US10064863B2, “Formulations of 3-(5-amino-2-methyl-4-oxo-4H-quinazolin-3-yl)-piperidine-2,6-dione” (Celgene Corporation, priority 2015, dated 2018).

Assay: Degradation of Compound A by hydrolysis
Format: physicochemical
Excerpt: In another aspect is an anhydrous pharmaceutical composition and dosage form. Such anhydrous forms can reduce or eliminate degradation of active ingredients in the composition resulting from heat or water exposure. For example, the addition of water (e.g., 5 percent) is widely accepted in the pharmaceutical arts as a means of simulating shelf-life, e.g., long-term storage in order to determine characteristics such as shelf-life or the stability of formulations over time. See, e.g., Jens T. Carstensen, Drug Stability: Principles & Practice, 2d. Ed., Marcel Dekker, NY, N.Y., 1995, pp. 379-80. The effect of water on a formulation can be of great significance since moisture or humidity are commonly encountered during manufacture, handling, packaging, storage, shipment, and use of formulations.

- degradation by hydrolysis: easily degraded by hydrolysis
SMILES: Cc1nc2cccc(N)c2c(=O)n1C1CCC(=O)NC1=O (stereo not shown) [Compound A, 3-(5-amino-2-methyl-4-oxo-4H-quinazolin-3-yl)-piperidine-2,6-dione]
